The subject of assay [1] is human iPSC neurons and astrocytes treated with 5 μM sAβ42s. Kind of assay: Focused small molecule screen, double culture (neuron, astrocyte), rescue from sAβ42s toxicity, high content imaging. It is filed as cell-based. As to conditions: for % B3T rescue / % Cux2 rescue / % MAP2 rescue / % Synapse rescue / percent rescue from sAβ42s toxicity at 25 µM / percent rescue from sAβ42s toxicity at 50 µM: double culture, 5 μM sAβ42s; for percent rescue from sAβ42s toxicity at 25 µM / percent rescue from sAβ42s toxicity at 50 µM: Homo sapiens, iPSC. How it is done:
(§1) FIGS. 11A-11D show synapse % rescue versus MAP2% rescue (FIGS. 11A-11B) and beta III tubulin % rescue versus MAP2% rescue (FIGS. 11C-11D), in neurons and astrocytes (FIGS. 11A and 11C) or neurons, astrocytes, and microglia (FIGS. 11B and 11D) treated with 5 μM sAβ42s and small molecules from a focused screen of known neuroprotective agents at multiple concentrations (50 μM, 25 μM, 12.5 μM and 6.25 μM (double culture), 50 μM, 12.5 μM, 3.1 μM and 0.78 μM (triple culture). Small molecules that prevented toxicity in dendrites (MAP2), synapses (Synapsin 1/2), cell count (CUX2), or axons ([…]) at or above 30% were considered hits (red dotted line).
Neurons from both NSC lines were evaluated by immunofluorescence staining. Briefly, cells were fixed with 4% PFA and 4% sucrose at room temperature for 20 minutes using Bravo automation. Fixed cells were then washed 2 times with PBS using Biotek 406 microplate washer (Beckman Coulter), followed by permeabilization and blocking by incubation with a solution containing 1×PBS, 0.1% Triton X-100, 2% donkey serum, and 1% BSA at room temperature for 30 minutes. Blocking solution was removed and cells were incubated with primary antibodies in blocking solution overnight at 4° C. After washing 6 times with PBS on Biotek 406 cell plate washer (Beckman Coulter), cells were then incubated with fluorophore-conjugated secondary antibodies for 1 hour at room temperature in the dark to avoid photobleaching. Cells were then washed 6 more times in with PBS before imaging. Fluorescent images were captured using IN Cell 6000 confocal microscope (GE Healthcare Life Sciences). The image analysis was performed with IN Cell 6000 analysis software.
Prior to experimentation, media volume in wells containing neurons was equalized with liquid handling automation (Bravo) in order to ensure precise control of concentrations. All Aβ42 oligomers, anti-Aβ, small molecules, inflammatory cytokines were prepared at 10× concentration and added to Neuronal Culture Media at an appropriate volume. For the repeated dosing experiments, the media were refreshed 50% at each dosing first, before adding Aβ42 oligomers, and/or anti-Aβ antibody at the specified final concentration.
(§2) In double (neuron, astrocyte) and triple (neuron, astrocyte, microglia) cultures, each small molecule listed in Table 1 was tested in the AD model paradigm at up to four concentrations. Molecules that characterized ≥30% rescue in any of the four measurements of dendrites area (MAP2), synapses count (synapsin 1/2), or cell count (CUX2), or axon area (Beta III Tubulin; “BT3”)) were classified as hits (FIGS. 11A-11D, Table 2, and Table 3).

For assay [2], the system named is human iPSC neurons, astrocytes and microglia treated with 5 μM sAβ42s. In words: Focused small molecule screen, triple culture (neuron, astrocyte, microglia), rescue from sAβ42s toxicity. It is filed as cell-based. How it is done: as §1
Frozen cells were thawed and immediately seeded at a density of 8,000 cells/well of a 384-well plate onto 8-week old neuron-astrocyte co-culture in Microglia media (BrainPhys™ neuronal media (Stem Cell Technologies) supplemented with 1× B27 with vitamin A, 1×N2 Plus Media Supplement (R&D Systems), 20 ng/mL BDNF, 20 ng/mL GDNF, 1 mM creatine, 200 nM L-ascorbic acid, 1 μg/mL mouse laminin, 0.5 mM GlutaMAX™ (Thermofisher), 0.5× penicillin-streptomycin, 1× normocin, 5 ng/mL TGF-β, 100 ng/mL human IL-34, 1.5 μg/mL cholesterol, 1 ng/mL gondoic acid, 100 ng/mL oleic acid, 460 μM thioglycerol, 1× insulin-transferrin-selenium, 25 ng/mL rhM-CSF, 5.4 μg/mL human insulin solution).
as §2

Molecules are shown by their SMILES. Where a name gives a salt, the structure may show the parent alone. Read-outs that look alike come from different tables or passages of the source. Where a SMILES comes first, the peptide text is derived from it. [ ]: non-standard residue; d: D form. Nle = CCCC[C@H](N)C(=O)O

These results are taken from patent US20230014181A1, “CULTURE SYSTEM AND METHODS FOR IMPROVED MODELING OF NEUROLOGICAL CONDITIONS” (Genentech, Inc., priority 2021, published 2023).

Regarding `N#C/C(=C\c1ccc(O)c(O)c1)C(=O)OCCc1cccs1` [2-TEDC], in assay [1] (50 μM compound), the “% B3T rescue” value worked out at 31%, the “% Cux2 rescue” value is 16%, the “% MAP2 rescue” value came to 22% and the “% Synapse rescue” value is 10%. Besides, in assay [2] (3.13 μM compound), the “% B3T rescue” value is 40%, the “% MAP2 rescue” value came out at 22% and the “% Synapse rescue” value stood at 15%. For the same molecule, in assay [2] (12.50 μM compound), the “% B3T rescue” value came to 43%, the “% MAP2 rescue” value is 25% and the “% Synapse rescue” value was 17%. Also, in assay [2] (50.00 μM compound), the “% B3T rescue” value is 73%, the “% MAP2 rescue” value amounted to 48% and the “% Synapse rescue” value is listed as 40%.
As to `Cc1ccc2c(c1)C(=O)[C@]1(O)CCN(c3ccccc3)C1=N2` [(S)-(−)-Blebbistatin], the “% B3T rescue” value in assay [1] (6.25 μM compound) is recorded as 41%; in assay [1] (12.5 μM compound), 34%; in assay [1] (25 μM compound), 38%; in assay [1] (50 μM compound) it was 49%; in assay [2] (50.00 μM compound) it was 36%. Also, the “% Cux2 rescue” value in assay [1] (6.25 μM compound) is 10%; in assay [1] (12.5 μM compound), 3%; in assay [1] (25 μM compound) it was 5%; in assay [1] (50 μM compound), 23%. For the same molecule, the “% MAP2 rescue” value is reported as 21% in assay [1] (6.25 μM compound); 25% in assay [1] (12.5 μM compound); 34% in assay [1] (25 μM compound); 34% in assay [1] (50 μM compound); 24% in assay [2] (50.00 μM compound). For the same molecule, the “% Synapse rescue” value in assay [1] (6.25 μM compound) was found to be 19%; in assay [1] (12.5 μM compound), 15%; in assay [1] (25 μM compound) it was 13%; in assay [1] (50 μM compound), 12%; in assay [2] (50.00 μM compound) it was 20%.
Take `O=C(Nc1cccc(Br)c1)c1cccc(S(=O)(=O)N2CCCCCC2)c1` [AK 7]: the “% B3T rescue” value is 42% in assay [1] (50 μM compound); 79% in assay [2] (0.78 μM compound); 77% in assay [2] (3.13 μM compound); 81% in assay [2] (12.50 μM compound); 56% in assay [2] (50.00 μM compound). Also, the “% Cux2 rescue” value in assay [1] (50 μM compound) is reported as 0%. For the same molecule, the “% MAP2 rescue” value in assay [1] (50 μM compound) is −17%; in assay [2] (0.78 μM compound), 1%; in assay [2] (3.13 μM compound) it was 18%; in assay [2] (12.50 μM compound), 53%; in assay [2] (50.00 μM compound), 28%. Moreover, the “% Synapse rescue” value in assay [1] (50 μM compound) is listed as −5%; in assay [2] (0.78 μM compound), 3%; in assay [2] (3.13 μM compound), 13%; in assay [2] (12.50 μM compound), 42%; in assay [2] (50.00 μM compound), 17%.
Consider `N#CC(c1ccnc(NCCc2cccnc2)n1)c1nc2ccccc2s1` (stereo not shown) [AS601245], for which the “% B3T rescue” value is 14% in assay [1] (6.25 μM compound); 20% in assay [1] (12.5 μM compound); 11% in assay [1] (25 μM compound); −16% in assay [1] (50 μM compound); 18% in assay [2] (3.13 μM compound); 26% in assay [2] (12.50 μM compound). Further, the “% B3T rescue” value in assay [2] (50.00 μM compound) amounted to 44%. Moreover, the “% Cux2 rescue” value in assay [1] (6.25 μM compound) was 9%; in assay [1] (12.5 μM compound) it was 13%; in assay [1] (25 μM compound) it was 32%; in assay [1] (50 μM compound), 123%. Besides, the “% MAP2 rescue” value in assay [1] (6.25 μM compound) is listed as 49%; in assay [1] (12.5 μM compound), 67%; in assay [1] (25 μM compound) it was 73%; in assay [1] (50 μM compound), 64%; in assay [2] (3.13 μM compound), 54%; in assay [2] (12.50 μM compound), 74%. Moreover, the “% MAP2 rescue” value in assay [2] (50.00 μM compound) is 95%. In addition, the “% Synapse rescue” value in assay [1] (6.25 μM compound) amounted to 37%; in assay [1] (12.5 μM compound), 57%; in assay [1] (25 μM compound) it was 36%; in assay [1] (50 μM compound), 19%; in assay [2] (3.13 μM compound), 17%; in assay [2] (12.50 μM compound), 26%. Also, in assay [2] (50.00 μM compound), the “% Synapse rescue” value came to 45%. In addition, in assay [1] (double and triple cultures), the “protection in focused screens” value is “protective to a lesser extent”.
As to `CCCC[C@@H](C=O)NC(=O)[C@H](CC(C)C)NC(=O)[C@H](CC(C)C)NC(C)=O` [Ac-Leu-Leu-Nle-CHO] (Ac-Leu-Leu-[Nle]-aldehyde), the “% B3T rescue” value in assay [1] (6.25 μM compound) is recorded as 14%; in assay [1] (12.5 μM compound), 0%; in assay [1] (25 μM compound), −11%; in assay [1] (50 μM compound), 0%; in assay [2] (0.78 μM compound), 38%; in assay [2] (3.13 μM compound), 57%. Moreover, the “% B3T rescue” value in assay [2] (12.50 μM compound) is recorded as 44%. The “% Cux2 rescue” value in assay [1] (6.25 μM compound) is recorded as 85%; in assay [1] (12.5 μM compound) it was 87%; in assay [1] (25 μM compound) it was 87%; in assay [1] (50 μM compound), 78%. Moreover, the “% MAP2 rescue” value in assay [1] (6.25 μM compound) came to 31%; in assay [1] (12.5 μM compound), 18%; in assay [1] (25 μM compound) it was 20%; in assay [1] (50 μM compound), 23%; in assay [2] (0.78 μM compound) it was 21%; in assay [2] (3.13 μM compound), 55%. Besides, in assay [2] (12.50 μM compound), the “% MAP2 rescue” value turned out to be 48%. Besides, the “% Synapse rescue” value in assay [1] (6.25 μM compound) was 0%; in assay [1] (12.5 μM compound), −4%; in assay [1] (25 μM compound), −5%; in assay [1] (50 μM compound), 2%; in assay [2] (0.78 μM compound) it was 14%; in assay [2] (3.13 μM compound), 38%. In assay [2] (12.50 μM compound), the “% Synapse rescue” value came to 18%.
With `CN(C)[C@@H]1C(O)=C(C(N)=O)C(=O)[C@@]2(O)C(O)=C3C(=O)c4c(O)ccc(Cl)c4[C@@H](O)[C@H]3C[C@@H]12` [Demeclocydine hydrochloride, Demeclocycline hydrochloride], the percent rescue from sAβ42s toxicity at 25 µM in assay [1] (25 μM compound, read-out: % B3T rescue) is 35%; in assay [1] (25 μM compound, read-out: % Cux2 rescue), 6%; in assay [1] (25 μM compound, read-out: % MAP2 rescue) it was 23%; in assay [1] (25 μM compound, read-out: % Synapse rescue) it was 15%. Further, the percent rescue from sAβ42s toxicity at 50 µM was found to be 63% in assay [1] (50 μM compound, read-out: % B3T rescue); 33% in assay [1] (50 μM compound, read-out: % Cux2 rescue); 39% in assay [1] (50 μM compound, read-out: % MAP2 rescue); 27% in assay [1] (50 μM compound, read-out: % Synapse rescue).
For `O=C1Nc2ccc(I)cc2/C1=C/c1cc(Br)c(O)c(Br)c1` [GW 5074], in assay [1] (6.25 μM compound), the “% B3T rescue” value stood at 16%, the “% Cux2 rescue” value is 95%, the “% MAP2 rescue” value turned out to be 17% and the “% Synapse rescue” value was determined as 8%. Also, in assay [1] (12.5 μM compound), the “% B3T rescue” value is given as 9%, the “% Cux2 rescue” value is recorded as 76%, the “% MAP2 rescue” value amounted to 12% and the “% Synapse rescue” value stood at 6%. Moreover, in assay [1] (25 μM compound), the “% B3T rescue” value came to 14%, the “% Cux2 rescue” value was 115%, the “% MAP2 rescue” value worked out at 19% and the “% Synapse rescue” value is listed as 8%. Also, in assay [1] (50 μM compound), the “% B3T rescue” value is 48%, the “% Cux2 rescue” value amounted to 162%, the “% MAP2 rescue” value is listed as 54% and the “% Synapse rescue” value is given as 8%.
Regarding `CN1C(=O)C(Cc2c[nH]c3ccccc23)NC1=S` (stereo not shown) [Necrostatin-1], in assay [1] (50 μM compound), the “% B3T rescue” value was 11%, the “% Cux2 rescue” value is listed as 10%, the “% MAP2 rescue” value worked out at 37% and the “% Synapse rescue” value is listed as 15%.
